Experimental data taken from ChEMBL document CHEMBL1134300, “Oxindole-based inhibitors of cyclin-dependent kinase 2 (CDK2): design, synthesis, enzymatic activities, and X-ray crystallographic analysis” (J Med Chem, 2001).

Experiments:
[1] = molecular target: Cyclin-dependent kinase 1 (Homo sapiens, UniProt P06493)
Description: Inhibitory activity against human cyclin-dependent kinase 1 (CDK1)

[2] = molecular target: Cyclin-dependent kinase 2 (Homo sapiens, UniProt P24941)
Description: Inhibitory activity against human cyclin-dependent kinase 2 (CDK2)

Cyclin-dependent kinase 1, sequence (P06493 whole entry): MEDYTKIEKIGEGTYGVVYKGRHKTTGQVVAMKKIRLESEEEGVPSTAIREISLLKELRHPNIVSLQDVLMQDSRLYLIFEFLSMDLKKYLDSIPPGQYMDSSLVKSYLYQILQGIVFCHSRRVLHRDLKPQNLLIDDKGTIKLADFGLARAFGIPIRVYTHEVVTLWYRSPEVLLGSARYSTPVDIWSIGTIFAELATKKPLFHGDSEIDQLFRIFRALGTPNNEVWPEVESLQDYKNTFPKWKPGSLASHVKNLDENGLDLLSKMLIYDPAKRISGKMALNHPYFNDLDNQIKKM

Row | Compound | IC50 [1] [nM] | IC50 [2] [nM]
1 | CNS(=O)(=O)c1ccc(N/C=C2\C(=O)Nc3ccccc32)cc1 | 2900 | 
2 | CNS(=O)(=O)Cc1ccc(NN=C2C(=O)Nc3ccc4ncsc4c32)cc1 | 56 | 
3 | O=C1Nc2ccc(-c3cnco3)cc2/C1=C/Nc1ccc2c(c1)CS(=O)(=O)C2 | 19 | 8.9
4 | O=C1Nc2ccccc2/C1=C/Nc1ccc(S(=O)(=O)Nc2nccs2)cc1 | 3800 | 
5 | O=C1Nc2ccc3ncsc3c2/C1=C/Nc1ccc(S(=O)(=O)Nc2ccccn2)cc1 | 100 | 
6 | NS(=O)(=O)c1ccc(NN=C2C(=O)Nc3cccc(CCc4ccncc4)c32)cc1 | 290 | 21
7 | O=C1Nc2ccc3ncsc3c2/C1=C/Nc1ccc(S(=O)(=O)NCc2ccccc2)cc1 | 52 | 5.6
8 | CC(=O)NS(=O)(=O)c1ccc(N/C=C2\C(=O)Nc3ccc4ncsc4c32)cc1 | 910 | 75
9 | O=C1Nc2ccc3ncsc3c2/C1=C/Nc1ccc(S(=O)(=O)Nc2ccccc2)cc1 | 41 | 4.3
10 | CNS(=O)(=O)c1ccc(N/C=C2\C(=O)Nc3ccc4ncsc4c32)cc1 | 64 | 5.6
11 | O=C1Nc2ccc3ncsc3c2/C1=C/Nc1ccc(S(=O)(=O)NCCO)cc1 | 41 | 4.7
12 | CN(C)S(=O)(=O)c1ccc(N/C=C2\C(=O)Nc3ccc4ncsc4c32)cc1 | 50 | 4.6
13 | CN(C)CCNS(=O)(=O)c1ccc(N/C=C2\C(=O)Nc3ccccc32)cc1 | 5500 | 1000
14 | COCCOCCOCCOCCN(C)S(=O)(=O)c1ccc(N/C=C2\C(=O)Nc3ccc4ncsc4c32)cc1 | 45 | 1
15 | COCCOCCOCCOCCNS(=O)(=O)c1ccc(N/C=C2\C(=O)Nc3ccc4ncsc4c32)cc1 | 72 | 4.5
16 | O=C1Nc2ccc3ncsc3c2/C1=C/Nc1ccc(S(=O)(=O)NCCc2c[nH]cn2)cc1 | 38 | 3.6
17 | Cc1cccc(C)c1NS(=O)(=O)c1ccc(N/C=C2\C(=O)Nc3ccc4ncsc4c32)cc1 | 14000 | 281
18 | CN(c1ccccn1)S(=O)(=O)c1ccc(N/C=C2\C(=O)Nc3ccc4ncsc4c32)cc1 | 64 | 5.6
19 | N=C(N)NS(=O)(=O)c1ccc(N/C=C2\C(=O)Nc3ccc4ncsc4c32)cc1 | 45 | 3.3
20 | CNS(=O)(=O)Cc1ccc(N/C=C2\C(=O)Nc3ccc4ncsc4c32)cc1 | 170 | 26
21 | NS(=O)(=O)Cc1ccc(N/C=C2\C(=O)Nc3ccc4ncsc4c32)cc1 | 100 | 7.5

Row | Compound | IC50 [1] [nM] | IC50 [2] [nM]
22 | O=C1Nc2ccc3ncsc3c2/C1=C/Nc1ccc(CS(=O)(=O)NCCO)cc1 | 200 | 13
23 | O=C1Nc2ccc3ncsc3c2/C1=C/Nc1ccc(S(=O)(=O)NCCOCCO)cc1 | 12 | 0.54
24 | CS(=O)(=O)c1ccc(N/C=C2\C(=O)Nc3ccc4ncsc4c32)cc1 | 39 | 5.7
25 | O=C1Nc2ccc3ncsc3c2/C1=C/Nc1ccc(S(=O)(=O)N[n+]2ccc3ccccc3c2)cc1 | 42 | 
26 | CS(=O)(=O)Cc1ccc(N/C=C2\C(=O)Nc3ccc4ncsc4c32)cc1 | 1200 | 50
27 | COc1ccc2c(c1)C(=NNc1ccc(S(N)(=O)=O)cc1)C(=O)N2 | 210 | 12
28 | Cc1cc(C)c2c(c1)/C(=C/Nc1ccc(S(N)(=O)=O)cc1)C(=O)N2 | > 10000 | > 10000
29 | NS(=O)(=O)c1ccc(N/C=C2\C(=O)Nc3ccccc32)cc1 | 3000 | 690
30 | NS(=O)(=O)c1ccc(NN=C2C(=O)Nc3ccc4[nH]nc(Cl)c4c32)cc1 | 83 | 2.2
31 | NS(=O)(=O)c1ccc(N/C=C2\C(=O)Nc3ccc(-c4cnco4)cc32)cc1 | 17 | 2.5
32 | COc1cccc(OC)c1CNC(=O)c1ccc2c(c1)C(=NNc1ccc(S(N)(=O)=O)cc1)C(=O)N2 | 9.3 | 1.7
33 | NS(=O)(=O)c1ccc(N/C=C2\C(=O)Nc3cccc(CO)c32)cc1 | 1700 | 54
34 | CC(C)Oc1cccc2c1C(=NNc1ccc(S(N)(=O)=O)cc1)C(=O)N2 | 41 | 3.4
35 | CCc1ccc2c(c1)NC(=O)C2=NNc1ccc(S(N)(=O)=O)cc1 | 660 | 21
36 | NS(=O)(=O)c1ccc(NN=C2C(=O)Nc3cc(Br)ccc32)cc1 | 520 | 43
37 | CC(C)(C)c1ccc2c(c1)NC(=O)/C2=N\Nc1ccc(S(N)(=O)=O)cc1 | > 10000 | > 10000
38 | NC(=O)c1cccc2c1C(=NNc1ccc(S(N)(=O)=O)cc1)C(=O)N2 | > 1000 | > 1000
39 | COc1ccc2c(c1Cl)C(=NNc1ccc(S(N)(=O)=O)cc1)C(=O)N2 | 1700 | 54
40 | Nc1ccc2c(c1)C(=NNc1ccc(S(N)(=O)=O)cc1)C(=O)N2 | 1400 | 74
41 | NS(=O)(=O)c1ccc(NN=C2C(=O)Nc3ccc(C(=O)NCc4cccnc4)cc32)cc1 | 51 | 2.1
42 | NS(=O)(=O)c1ccc(N/N=C2\C(=O)Nc3cccc(/C=C/c4ccc(O)cc4)c32)cc1 | 170 | 

Row | Compound | IC50 [1] [nM] | IC50 [2] [nM]
43 | NS(=O)(=O)c1ccc(NN=C2C(=O)Nc3ccc(S(N)(=O)=O)cc32)cc1 | 170 | 43
44 | CS(=O)(=O)c1ccc2c(c1)C(=NNc1ccc(S(N)(=O)=O)cc1)C(=O)N2 | 350 | 16
45 | Cc1c([N+](=O)[O-])ccc2c1C(=NNc1ccc(S(N)(=O)=O)cc1)C(=O)N2 | 87 | 4.6
46 | NS(=O)(=O)c1ccc(N/C=C2\C(=O)Nc3ccc(C(=O)O)cc32)cc1 | 150 | 28
47 | NS(=O)(=O)c1ccc(NN=C2C(=O)Nc3cccc(-c4cc[nH]n4)c32)cc1 | 250 | 19
48 | NS(=O)(=O)c1ccc(NN=C2C(=O)Nc3ccc4[nH]ncc4c32)cc1 | 120 | 13
49 | NS(=O)(=O)c1ccc(NN=C2C(=O)Nc3cc(Oc4ccccc4)ccc32)cc1 | > 10000 | > 10000
50 | NS(=O)(=O)c1ccc(NN=C2C(=O)Nc3ccc(I)cc32)cc1 | 95 | 11
51 | NS(=O)(=O)c1ccc(NN=C2C(=O)Nc3ccc(F)cc32)cc1 | 290 | 34
52 | NS(=O)(=O)c1ccc(/N=N/c2c(O)[nH]c3cccc(I)c23)cc1 | 110 | 4.6
53 | NS(=O)(=O)c1ccc(N/N=C2\C(=O)Nc3ccc4ncsc4c32)cc1 | 43 | 7.1
54 | Cc1cccc2c1NC(=O)/C2=C\Nc1ccc(S(N)(=O)=O)cc1 | > 10000 | > 10000
55 | CCOC(=O)c1cccc2c1/C(=C/Nc1ccc(S(N)(=O)=O)cc1)C(=O)N2 | 130 | 8.9
56 | NS(=O)(=O)c1ccc(NN=C2C(=O)Nc3cccc(Oc4ccccc4)c32)cc1 | 290 | 13
57 | NS(=O)(=O)c1ccc(NN=C2C(=O)Nc3cccc([N+](=O)[O-])c32)cc1 | > 1000 | 2400
58 | NS(=O)(=O)c1ccc(NN=C2C(=O)Nc3ccc(O)cc32)cc1 | 77 | 10
59 | COC(=O)c1ccc2c(c1)/C(=C/Nc1ccc(S(N)(=O)=O)cc1)C(=O)N2 | 12 | 2.1
60 | CN(C)C(=O)c1ccc2c(c1)C(=NNc1ccc(S(N)(=O)=O)cc1)C(=O)N2 | 130 | 17
61 | NS(=O)(=O)c1ccc(N/C=C2\C(=O)Nc3cc(CO)ccc32)cc1 | 740 | 61
62 | Cc1cc(Cl)cc2c1NC(=O)/C2=C\Nc1ccc(S(N)(=O)=O)cc1 | > 10000 | > 10000
63 | NC(=O)c1ccc2c(c1)C(=NNc1ccc(S(N)(=O)=O)cc1)C(=O)N2 | 2.8 | 4.5

Row | Compound | IC50 [1] [nM] | IC50 [2] [nM]
64 | CC(C)Cc1cccc2c1C(=NNc1ccc(S(N)(=O)=O)cc1)C(=O)N2 | 19 | 1.2
65 | CCc1cccc2c1C(=NNc1ccc(S(N)(=O)=O)cc1)C(=O)N2 | 46 | 7.9
66 | CC(C)c1cccc2c1C(=NNc1ccc(S(N)(=O)=O)cc1)C(=O)N2 | 37 | 2.5
67 | Cc1ccc2c(c1Cl)C(=NNc1ccc(S(N)(=O)=O)cc1)C(=O)N2 | 250 | 13
68 | CCOc1cccc2c1C(=NNc1ccc(S(N)(=O)=O)cc1)C(=O)N2 | 550 | 93
69 | NS(=O)(=O)c1ccc(NN=C2C(=O)Nc3ccc([N+](=O)[O-])cc32)cc1 | 710 | 15
70 | C/C(Nc1ccc(S(N)(=O)=O)cc1)=C1/C(=O)Nc2ccc(-c3cnco3)cc21 | 7.1 | 2
71 | NS(=O)(=O)c1ccc(NN=C2C(=O)Nc3ccc(S(=O)(=O)O)cc32)cc1 | 130 | 15
72 | C/C(Nc1ccc(S(N)(=O)=O)cc1)=C1/C(=O)Nc2ccc(Cl)cc21 | 220 | 22
73 | CC(C)CC(=O)c1ccc2c(c1)/C(=C/Nc1ccc(S(N)(=O)=O)cc1)C(=O)N2 | 16 | 1.9
74 | NS(=O)(=O)c1ccc(N/N=C2\C(=O)Nc3ccccc32)cc1 | 1300 | 120
75 | NS(=O)(=O)c1ccc(N/C=C2\C(=O)Nc3ccc4ncccc4c32)cc1 | 15 | 1.5
76 | Cc1ccc2c(c1)C(=NNc1ccc(S(N)(=O)=O)cc1)C(=O)N2 [GW275944X] | 330 | 46
77 | NS(=O)(=O)c1ccc(N/N=C2\C(=O)Nc3ccc(-c4cnco4)cc32)cc1 [GW276655X] | 10 | 2.3
78 | NS(=O)(=O)c1ccc(N/N=C2\C(=O)Nc3ccc(Cl)cc32)cc1 [GW280670X] | 300 | 43
79 | NS(=O)(=O)c1ccc(NN=C2C(=O)Nc3ccc(C(=O)NCCCn4ccnc4)cc32)cc1 [GW290597X] | 230 | 25
80 | CC(C)c1ccc2c(c1)NC(=O)/C2=N/Nc1ccc(S(N)(=O)=O)cc1 [GW300653X] | 790 | 75
81 | NS(=O)(=O)c1ccc(NN=C2C(=O)Nc3ccc(C(=O)NCc4ccncc4)cc32)cc1 [GW300657X] | 74 | 8.9
